# Results taken from paper PMC7156458, “Synthetic biology based construction of biological activity-related library of fungal decalin-containing diterpenoid pyrones” (Nature Communications, 2020).
# Molecular target: Aβ42 (Homo sapiens, UniProt P05067)
# Assay: Th-T (thioflavin-T) assay of Aβ42 aggregation
# Assay type: biochemical
# Conditions: for Th-T fluorescence of Aβ42 (sheet Fig. 7a), mean of three wells: head suffix _50 (concentration 50); for Th-T assay plate reading, mean of three wells (Supplementary Fig. 47): source data, Ab alone and No Ab as controls; for Th-T fluorescence, mean of three wells: Supplementary Fig. 47 source data
# Aβ42, sequence (P05067 672-713): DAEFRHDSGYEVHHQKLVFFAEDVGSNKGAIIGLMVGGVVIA
structure (smiles),measurement,setting,value
C=C1CC[C@@H]2[C@](C)(CC[C@H]3O[C@H](C=C(C)C)C[C@@]23C)[C@@H]1Cc1c(OC)oc(CO)c(C)c1=O [Compound 20],"Th-T fluorescence of Aβ42 (sheet Fig. 7a), mean of three wells",reading M73,2.113
same,"Th-T fluorescence of Aβ42 (sheet Fig. 7a), mean of three wells",reading M74,2.11
same,"Th-T fluorescence of Aβ42 (sheet Fig. 7a), mean of three wells",reading M75,2.1032
same,"Th-T fluorescence of Aβ42 (sheet Fig. 7a), mean of three wells",reading M76,2.123
same,"Th-T fluorescence of Aβ42 (sheet Fig. 7a), mean of three wells",reading M77,2.122
same,"Th-T fluorescence of Aβ42 (sheet Fig. 7a), mean of three wells",reading M78,2.117
same,"Th-T fluorescence of Aβ42 (sheet Fig. 7a), mean of three wells",reading M79,2.1153
same,"Th-T fluorescence of Aβ42 (sheet Fig. 7a), mean of three wells",reading M80,2.1
same,"Th-T fluorescence of Aβ42 (sheet Fig. 7a), mean of three wells",reading M81,2.1
same,"Th-T fluorescence of Aβ42 (sheet Fig. 7a), mean of three wells",reading M82,2.102
same,"Th-T fluorescence of Aβ42 (sheet Fig. 7a), mean of three wells",reading M83,2.096
same,"Th-T fluorescence of Aβ42 (sheet Fig. 7a), mean of three wells",reading M84,2.077
same,"Th-T assay plate reading, mean of three wells (Supplementary Fig. 47)",measurement M1,0.2292
same,"Th-T assay plate reading, mean of three wells (Supplementary Fig. 47)",measurement M2,0.2238
same,"Th-T assay plate reading, mean of three wells (Supplementary Fig. 47)",measurement M3,0.2417
same,"Th-T assay plate reading, mean of three wells (Supplementary Fig. 47)",measurement M4,0.2884
same,"Th-T assay plate reading, mean of three wells (Supplementary Fig. 47)",measurement M5,0.3754
same,"Th-T assay plate reading, mean of three wells (Supplementary Fig. 47)",measurement M6,0.3834
same,"Th-T assay plate reading, mean of three wells (Supplementary Fig. 47)",measurement M7,0.4602
same,"Th-T assay plate reading, mean of three wells (Supplementary Fig. 47)",measurement M8,0.4852
same,"Th-T assay plate reading, mean of three wells (Supplementary Fig. 47)",measurement M9,0.5189
same,"Th-T assay plate reading, mean of three wells (Supplementary Fig. 47)",measurement M10,0.5747
same,"Th-T assay plate reading, mean of three wells (Supplementary Fig. 47)",measurement M11,0.6382
same,"Th-T assay plate reading, mean of three wells (Supplementary Fig. 47)",measurement M12,0.9536
same,"Th-T assay plate reading, mean of three wells (Supplementary Fig. 47)",measurement M13,1.7846
same,"Th-T assay plate reading, mean of three wells (Supplementary Fig. 47)",measurement M14,2.679
same,"Th-T assay plate reading, mean of three wells (Supplementary Fig. 47)",measurement M15,3.243
same,"Th-T assay plate reading, mean of three wells (Supplementary Fig. 47)",measurement M16,3.548
same,"Th-T fluorescence, mean of three wells (Fig. 7a)","reading M107, compound at 10 (head suffix _10)",3.243
same,"Th-T fluorescence, mean of three wells (Fig. 7a)","reading M107, compound at 20 (head suffix _20)",3.218
same,"Th-T fluorescence, mean of three wells (Fig. 7a)","reading M107, compound at 50 (head suffix _50)",2.093
same,"Th-T fluorescence, mean of three wells (Fig. 7a)","reading M108, compound at 10 (head suffix _10)",3.266
same,"Th-T fluorescence, mean of three wells (Fig. 7a)","reading M108, compound at 20 (head suffix _20)",3.22
same,"Th-T fluorescence, mean of three wells (Fig. 7a)","reading M108, compound at 50 (head suffix _50)",2.097
same,"Th-T fluorescence, mean of three wells (Fig. 7a)","reading M109, compound at 10 (head suffix _10)",3.248
same,"Th-T fluorescence, mean of three wells (Fig. 7a)","reading M109, compound at 20 (head suffix _20)",3.217
same,"Th-T fluorescence, mean of three wells (Fig. 7a)","reading M109, compound at 50 (head suffix _50)",2.11
same,"Th-T fluorescence, mean of three wells (Fig. 7a)","reading M110, compound at 10 (head suffix _10)",3.266
same,"Th-T fluorescence, mean of three wells (Fig. 7a)","reading M110, compound at 20 (head suffix _20)",3.23
same,"Th-T fluorescence, mean of three wells (Fig. 7a)","reading M110, compound at 50 (head suffix _50)",2.1005
same,"Th-T fluorescence, mean of three wells (Fig. 7a)","reading M111, compound at 10 (head suffix _10)",3.255
same,"Th-T fluorescence, mean of three wells (Fig. 7a)","reading M111, compound at 20 (head suffix _20)",3.22
same,"Th-T fluorescence, mean of three wells (Fig. 7a)","reading M111, compound at 50 (head suffix _50)",2.105
same,"Th-T fluorescence, mean of three wells (Fig. 7a)","reading M112, compound at 10 (head suffix _10)",3.256
same,"Th-T fluorescence, mean of three wells (Fig. 7a)","reading M112, compound at 20 (head suffix _20)",3.191
same,"Th-T fluorescence, mean of three wells (Fig. 7a)","reading M112, compound at 50 (head suffix _50)",2.0956
same,"Th-T fluorescence, mean of three wells (Fig. 7a)","reading M113, compound at 10 (head suffix _10)",3.234
same,"Th-T fluorescence, mean of three wells (Fig. 7a)","reading M113, compound at 20 (head suffix _20)",3.181
same,"Th-T fluorescence, mean of three wells (Fig. 7a)","reading M113, compound at 50 (head suffix _50)",2.0902
same,"Th-T fluorescence, mean of three wells (Fig. 7a)","reading M114, compound at 10 (head suffix _10)",3.244
same,"Th-T fluorescence, mean of three wells (Fig. 7a)","reading M114, compound at 20 (head suffix _20)",3.188
same,"Th-T fluorescence, mean of three wells (Fig. 7a)","reading M114, compound at 50 (head suffix _50)",2.0998
same,"Th-T fluorescence, mean of three wells (Fig. 7a)","reading M115, compound at 10 (head suffix _10)",3.222
same,"Th-T fluorescence, mean of three wells (Fig. 7a)","reading M115, compound at 20 (head suffix _20)",3.199
same,"Th-T fluorescence, mean of three wells (Fig. 7a)","reading M115, compound at 50 (head suffix _50)",2.1006
same,"Th-T fluorescence, mean of three wells (Fig. 7a)","reading M116, compound at 10 (head suffix _10)",3.244
same,"Th-T fluorescence, mean of three wells (Fig. 7a)","reading M116, compound at 20 (head suffix _20)",3.193
same,"Th-T fluorescence, mean of three wells (Fig. 7a)","reading M116, compound at 50 (head suffix _50)",2.109
same,"Th-T fluorescence, mean of three wells (Fig. 7a)","reading M117, compound at 10 (head suffix _10)",3.211
same,"Th-T fluorescence, mean of three wells (Fig. 7a)","reading M117, compound at 20 (head suffix _20)",3.166
same,"Th-T fluorescence, mean of three wells (Fig. 7a)","reading M117, compound at 50 (head suffix _50)",2.104
same,"Th-T fluorescence, mean of three wells (Fig. 7a)","reading M118, compound at 10 (head suffix _10)",3.228
same,"Th-T fluorescence, mean of three wells (Fig. 7a)","reading M118, compound at 20 (head suffix _20)",3.17
same,"Th-T fluorescence, mean of three wells (Fig. 7a)","reading M118, compound at 50 (head suffix _50)",2.102
same,"Th-T fluorescence, mean of three wells (Fig. 7a)","reading M119, compound at 10 (head suffix _10)",3.2146
same,"Th-T fluorescence, mean of three wells (Fig. 7a)","reading M119, compound at 20 (head suffix _20)",3.1938
same,"Th-T fluorescence, mean of three wells (Fig. 7a)","reading M119, compound at 50 (head suffix _50)",2.1065
same,"Th-T fluorescence, mean of three wells (Fig. 7a)","reading M120, compound at 10 (head suffix _10)",3.221
same,"Th-T fluorescence, mean of three wells (Fig. 7a)","reading M120, compound at 20 (head suffix _20)",3.171
same,"Th-T fluorescence, mean of three wells (Fig. 7a)","reading M120, compound at 50 (head suffix _50)",2.103
same,"Th-T fluorescence, mean of three wells (Fig. 7a)","reading M121, compound at 10 (head suffix _10)",3.196
same,"Th-T fluorescence, mean of three wells (Fig. 7a)","reading M121, compound at 20 (head suffix _20)",3.1528
same,"Th-T fluorescence, mean of three wells (Fig. 7a)","reading M121, compound at 50 (head suffix _50)",2.099
same,"Th-T fluorescence, mean of three wells (Fig. 7a)","reading M122, compound at 10 (head suffix _10)",3.2052
same,"Th-T fluorescence, mean of three wells (Fig. 7a)","reading M122, compound at 20 (head suffix _20)",3.15
same,"Th-T fluorescence, mean of three wells (Fig. 7a)","reading M122, compound at 50 (head suffix _50)",2.114
same,"Th-T fluorescence, mean of three wells (Fig. 7a)","reading M123, compound at 10 (head suffix _10)",3.204
same,"Th-T fluorescence, mean of three wells (Fig. 7a)","reading M123, compound at 20 (head suffix _20)",3.156
same,"Th-T fluorescence, mean of three wells (Fig. 7a)","reading M123, compound at 50 (head suffix _50)",2.111
same,"Th-T fluorescence, mean of three wells (Fig. 7a)","reading M124, compound at 10 (head suffix _10)",3.218
same,"Th-T fluorescence, mean of three wells (Fig. 7a)","reading M124, compound at 20 (head suffix _20)",3.1455
same,"Th-T fluorescence, mean of three wells (Fig. 7a)","reading M124, compound at 50 (head suffix _50)",2.111
same,"Th-T fluorescence, mean of three wells (Fig. 7a)","reading M125, compound at 10 (head suffix _10)",3.1992
same,"Th-T fluorescence, mean of three wells (Fig. 7a)","reading M125, compound at 20 (head suffix _20)",3.1234
same,"Th-T fluorescence, mean of three wells (Fig. 7a)","reading M125, compound at 50 (head suffix _50)",2.096
same,"Th-T fluorescence, mean of three wells (Fig. 7a)","reading M126, compound at 10 (head suffix _10)",3.205
same,"Th-T fluorescence, mean of three wells (Fig. 7a)","reading M126, compound at 20 (head suffix _20)",3.128
same,"Th-T fluorescence, mean of three wells (Fig. 7a)","reading M126, compound at 50 (head suffix _50)",2.099
same,"Th-T fluorescence, mean of three wells (Fig. 7a)","reading M127, compound at 10 (head suffix _10)",3.195
same,"Th-T fluorescence, mean of three wells (Fig. 7a)","reading M127, compound at 20 (head suffix _20)",3.121
same,"Th-T fluorescence, mean of three wells (Fig. 7a)","reading M127, compound at 50 (head suffix _50)",2.104
same,"Th-T fluorescence, mean of three wells (Fig. 7a)","reading M128, compound at 10 (head suffix _10)",3.198
same,"Th-T fluorescence, mean of three wells (Fig. 7a)","reading M128, compound at 20 (head suffix _20)",3.11
same,"Th-T fluorescence, mean of three wells (Fig. 7a)","reading M128, compound at 50 (head suffix _50)",2.109
same,"Th-T fluorescence, mean of three wells",time-course reading M97,4.216
same,"Th-T fluorescence, mean of three wells",time-course reading M98,4.216
same,"Th-T fluorescence, mean of three wells",time-course reading M99,4.236
same,"Th-T fluorescence, mean of three wells",time-course reading M100,4.238
same,"Th-T fluorescence, mean of three wells",time-course reading M101,4.225
same,"Th-T fluorescence, mean of three wells",time-course reading M102,4.201
same,"Th-T fluorescence, mean of three wells",time-course reading M103,4.222
same,"Th-T fluorescence, mean of three wells",time-course reading M104,4.203
same,"Th-T fluorescence, mean of three wells",time-course reading M105,4.225
same,"Th-T fluorescence, mean of three wells",time-course reading M106,4.21
same,"Th-T fluorescence, mean of three wells",time-course reading M107,4.216
same,"Th-T fluorescence, mean of three wells",time-course reading M108,4.2224
same,"Th-T fluorescence, mean of three wells",time-course reading M109,4.227
same,"Th-T fluorescence, mean of three wells",time-course reading M110,4.248
same,"Th-T fluorescence, mean of three wells",time-course reading M111,4.24
same,"Th-T fluorescence, mean of three wells",time-course reading M112,4.225
same,"Th-T fluorescence, mean of three wells",time-course reading M113,4.225
same,"Th-T fluorescence, mean of three wells",time-course reading M114,4.212
same,"Th-T fluorescence, mean of three wells",time-course reading M115,4.199
same,"Th-T fluorescence, mean of three wells",time-course reading M116,4.199
